What was measured:
Format in all cases: in vivo, human
[1] = test system: patients with infantile spasms (IS); test: EEG pattern (hypsarrhythmia) at follow-up assessment after ACTH treatment
From the text: The presence of hypsarrhythmia is often used as a diagnostic criteria for IS, and is characterized by an abnormal interictal pattern consisting of high amplitude and irregular waves and spikes in a background of chaotic and disorganized activity within the EEG signals.
At baseline, 54 (36%) had hypsarrhythmia pattern, 75 (50%) had modified hypsarrhythmia pattern, and 21 (14%) had other abnormalities (without hypsarrhythmia) (Table 1). At the follow-up assessment, 58 patients with good response had abnormal EEG findings (abnormalities other than hypsarrhythmia, such as multifocal spikes or sharp waves, abnormal slow wave and fast activity). In terms of the EEG pattern, there was no difference between poor- and good responders, and between the patients who relapsed and the sustained responders (Tables 2-3).
(§1) Different criteria have been utilized to determine response to treatment in previous studies. Our EEG responder criteria are consistent with the criteria used in several previous studies, comprising IS freedom for at least seven consecutive days during treatment, and disappearance of hypsarrhythmia on follow-up EEG assessment. Although the presence of hypsarrhythmia has been considered crucial for the diagnosis and evaluating treatment response in IS, hypsarrhythmia may not be present at diagnosis in 25% of cases. Lack of hypsarrhythmia may be seen in patients with prior AED treatment, the early phase of IS, and late onset of spasms. […] Our findings highlight the importance of new quantitive biomarkers for evaluating EEGs in IS.

[2] = test system: patients with infantile spasms (IS); test: Quantitative EEG analysis (manual/automatic spike count, delta power) before and after ACTH treatment; settings: for Delta Power Change / Spike Count (Automatic) Change / Spike Count (Manual) Change / Delta Power Follow-up / Spike Count (Manual) Follow-up / Spike Count (Automatic) Follow-up: median
Method: In act 602, EEG data of a subject is obtained in any manner described above in relation to act 102 of FIG. 1. In act 604, a power spectral density (PSD) of at least part of the EEG data is calculated. The PSD, as discussed above, provides information on the amount of power present in various frequency components of the EEG signal(s). As one non-limiting example, a Fast Fourier Transform (FFT) of one or more EEG signals may be performed to determine the PSD of the EEG signals. Suitable parameters of the FFT operation may include a time constant of 0.16 seconds, a sampling rate of 64 Hz, and/or an FFT window duration of 2 seconds. In some embodiments, a high-pass, low-pass and/or band-pass filter may be applied to EEG signals prior to generation of a PSD. For instance, frequencies above 35 Hz may be filtered from the EEG signals and a PSD generated based on the resulting filtered EEG signals. It will be appreciated that, because an FFT operates on a window of time of the EEG signal(s), a number of PSDs may be calculated for a number of (overlapping or non-overlapping) windows of time of the EEG signal(s). As a result, act 604 may be performed numerous times.
In act 606, a delta power is calculated based on a PSD calculated in act 604. In cases where a number of PSDs are calculated in act 604, a number of delta powers may be calculated in act 606 by calculating a delta power for each PSD. In some cases, the delta power may vary over time within the EEG signals obtained from a subject in a single session. In these cases, it may be preferable to obtain a single average value of the delta power from the EEG signals by, for instance, calculating the mean of the calculated delta power. Delta power may be calculated by determining the total spectral power present within the calculated PSD data between the frequency bounds of the delta band (e.g., 0.5 Hz to 4 Hz). In some cases, the delta power may be calculated by determining a total area under the PSD curve within the delta band's frequency range.
In act 702, EEG data of a subject is obtained in any manner described above in relation to act 102 of FIG. 1. In act 704, a plurality of wavelet coefficients may be calculated based on the EEG data obtained in act 702. As discussed above, wavelet analysis may represent a particularly desirable approach to identifying spikes due to the natural ability of wavelets to identify rapid changes in a signal's amplitude. Act 704 may comprise any suitable approach to determining wavelet coefficients, including a continuous wavelet transform (CWT), a discrete wavelet transform (DWT) and/or a stationary wavelet transform (SWT). In some embodiments, an SWT analysis may be preferable because the results are invariant with respect to time shifts, although a greater redundancy in data may be produced compared with a DWT analysis, for example. Any suitable wavelet family may be utilized during act 704, including haar, daubechies, biorthogonal, coiflets and/or symlets (e.g., symlet4).
In act 706, spikes are identified from the wavelet coefficients determined in act 704. Act 706 may comprise identifying a number of instances in which the wavelet coefficients have values above or below a suitable threshold that represents an incidence of a spike, to produce a spike count. A spike frequency may be determined by dividing the spike count by the total amount of time represented by the EEG data.
Fifty out of these 150 patients had original EEG data available for analysis met criteria for the comparison of baseline and follow-up electrophysiological evaluation.
The magnitude of changes in the EEG parameters (spike quantification and slow wave activity) were more prominent in patients responders as compared to non-responders (MSC diff: 169 vs.44 spikes; p<0.001, ASCA diff: 157 vs.55 spikes; p<0.001, DP diff: 11.3 vs.2.3, Sf diff: 158 vs. 60; p<0.05 respectively in responders vs. non-responders, Table 5).

[3] = test system: patients with infantile spasms (IS); test: Clinical outcome assessment of ACTH treatment (spasms frequency, response, relapse); parameters: Sf diff (spasms frequency, baseline minus follow-up) / Seizure frequency, Follow-up / Spasms frequency Follow-up / Spasms frequency Change: unit not given here; settings: for Spasms frequency Change / Spasms frequency Follow-up: median
From the text: One-hundred-fifty (83 males; 55%) out of 170 patients were included for the clinical outcome assessment study. Mean age of spasms onset was 6.6 (±3.4) months. The mean time to treatment and follow-up duration were 39 (±50) and 38 (±49) days, respectively. Fifty-one out of 150 (34%) of patients had abnormal MRI findings.
The etiology of IS was: genetic/inborn metabolic in 28 (19%), unknown in 71 (47%), and structural brain abnormality (acquired and congenital) in 51 (34%). […] During the ACTH treatment, 86 (57%) patients were receiving concomitant ASMs (Table 1).
One hundred-one of 150 patients (67%) were deemed responders to the ACTH treatment at follow-up assessment, with IS cessation and resolution of hypsarrhythmia (Table 2). Thirty out of 101 initial responders (30%) experienced a relapse. Clinical parameters such as age of onset, sex, MRI finding, previous seizure history, previous and concomitant AED treatment, etiology, and baseline EEG were not prognostic factors for response and relapse (Tables 2-3).
as §1

[4] = Patients without Relapse (n: 20)
[5] = patients with sustained response
[6] = percentage of 101 initial responders

For “Adrenocorticotropic hormone (SYSMEHFRWGKPVGKKRRPVKVYPNGAEDESAEAFPLEF; Corticotropin; UniProt P01189 138-176, looked up) [ACTH, polypeptide tropic hormone produced by and secreted by the anterior pituitary gland; used to treat infantile spasms]”, the “Follow-up EEG features: Normal EEG, number of patients” value ([1]; n: 150) was 44, the “Follow-up EEG features: Without Hypsarrhythmia, number of patients” value ([1]; n: 150, baseline 21) was 94 and the “Follow-up EEG features: Hypsarrhythmia, number of patients” value ([1]; n: 150, baseline 54) was 6. For the same substance, the “Follow-up EEG features: Modified Hypsarrhythmia, number of patients” value ([1]; n: 150, baseline 75) was 6, the “Follow-up EEG features: Normal EEG, share of patients” value ([1]; percentage of n: 150) was “(29.3)” and the “Follow-up EEG features: Without Hypsarrhythmia, share of patients” value ([1]; percentage of n: 150, baseline (14)) was “(62.7)”. The “Follow-up EEG features: Hypsarrhythmia, share of patients” value ([1]; percentage of n: 150, baseline (36)) was “(4)”, the “Follow-up EEG features: Modified Hypsarrhythmia, share of patients” value ([1]; percentage of n: 150, baseline (50)) was “(4)” and the “Delta Power Change” value ([2]; Good responder (n: 31)) was 10.2. The “Spike Count (Automatic) Change” value ([2]; Good responder (n: 31)) was 144, the “Spike Count (Manual) Change” value ([2]; Good responder (n: 31)) was 153 and the “Delta Power Follow-up” value ([2]; Good responder (n: 31), baseline 24.7) was 13.4. The “Spike Count (Manual) Follow-up” value ([2]; Good responder (n: 31), baseline 232) was 48, the “Spike Count (Automatic) Follow-up” value ([2]; Good responder (n: 31), baseline 244) was 53 and the “Delta Power Change” value ([2]; Patients with Relapse (n: 11)) was 6. For the same substance, the “Spike Count (Automatic) Change” value ([2]; Patients with Relapse (n: 11)) was 50, the “Spike Count (Manual) Change” value ([2]; Patients with Relapse (n: 11)) was 51 and the “Delta Power Follow-up” value ([2]; Patients with Relapse (n: 11), baseline 23.6) was 17.1. The “Spike Count (Manual) Follow-up” value ([2]; Patients with Relapse (n: 11), baseline 187) was 86, the “Spike Count (Automatic) Follow-up” value ([2]; Patients with Relapse (n: 11), baseline 197) was 117 and the “Delta Power Change” value [2, 4] was 14.6. For the same substance, the “Spike Count (Automatic) Change” value [2, 4] was 176, the “Spike Count (Manual) Change” value [2, 4] was 212 and the “Delta Power Follow-up” value ([2]; Patients without Relapse (n: 20), baseline 26.4) was 10.5. The “Spike Count (Manual) Follow-up” value ([2]; Patients without Relapse (n: 20), baseline 247) was 10, the “Spike Count (Automatic) Follow-up” value ([2]; Patients without Relapse (n: 20), baseline 257) was 28.5 and the “Delta Power Change” value ([2]; Poor responder (n: 19)) was 3.1. The “Spike Count (Automatic) Change” value ([2]; Poor responder (n: 19)) was 47, the “Spike Count (Manual) Change” value ([2]; Poor responder (n: 19)) was 52 and the “Delta Power Follow-up” value ([2]; Poor responder (n: 19), baseline 21.7) was 19.5. The “Spike Count (Automatic) Follow-up” value ([2]; Poor responder (n: 19), baseline 236) was 152, the “Spike Count (Manual) Follow-up” value ([2]; Poor responder (n: 19), baseline 242) was 168 and the “DP (delta power) at follow-up EEG” value ([2]; n: 50, baseline 25.1, p<0.001) was 17.2 μV. The “Delta Power, Follow-up EEG” value ([2]; n: 50, mean, baseline 25.1) was 17.2, the “Spike Count Automatic, Follow-up EEG” value ([2]; n: 50, mean, baseline 232) was 113 and the “Spike Count Manual, Follow-up EEG” value ([2]; n: 50, mean, baseline 234) was 112. For the same substance, the “ASCA diff (automatic spike count, baseline minus follow-up)” value ([2]; patients who relapsed) was 75, the “DP diff (delta power, baseline minus follow-up)” value ([2]; patients who relapsed) was 5.4 and the “MSC diff (manual spike count, baseline minus follow-up)” value ([2]; patients who relapsed) was 76. For the same substance, the “ASCA diff (automatic spike count, baseline minus follow-up)” value [2, 5] was 202, the “DP diff (delta power, baseline minus follow-up)” value [2, 5] was 14.6 and the “MSC diff (manual spike count, baseline minus follow-up)” value [2, 5] was 220. The “ASCA diff (automatic spike count, baseline minus follow-up)” value ([2]; responders) was 157 spikes, the “DP diff (delta power, baseline minus follow-up)” value ([2]; responders) was 11.3 and the “MSC diff (manual spike count, baseline minus follow-up)” value ([2]; responders) was 169 spikes. The “relapse rate among initial responders” value ([3]; 30 of 101 initial responders) was 30%, the “response rate (responders to the ACTH treatment at follow-up: IS cessation and resolution of hypsarrhythmia)” value ([3]; 101 of 150 patients, follow-up after day 14 of treatment) was 67% and the “Spasms frequency follow up/week” value ([3]; Good Response (n): 101, baseline 318) was 80 /week. For the same substance, the “Spasms frequency Change” value ([3]; Good responder (n: 31)) was 84, the “Spasms frequency Follow-up” value ([3]; Good responder (n: 31), baseline 122) was 0 and the “Spasms frequency Change” value ([3]; Patients with Relapse (n: 11)) was 11. The “Spasms frequency Follow-up” value ([3]; Patients with Relapse (n: 11), baseline 140) was 42, the “Spasms frequency Change” value [3, 4] was 117 and the “Spasms frequency Follow-up” value ([3]; Patients without Relapse (n: 20), baseline 117) was 0. The “Spasms frequency follow up/week” value ([3]; Poor Response (n): 49, baseline 242) was 233 /week, the “Spasms frequency Change” value ([3]; Poor responder (n: 19)) was 43 and the “Spasms frequency Follow-up” value ([3]; Poor responder (n: 19), baseline 105) was 70. For the same substance, the “Spasms frequency follow up/week” value ([3]; Relapse (n): 30, baseline 311) was 270 /week, the “Spasms frequency follow up/week” value ([3]; Without Relapse (n): 71, baseline 322) was 0 /week and the “Seizure frequency, Follow-up” value ([3]; n: 50, mean, baseline 192) was 70. For the same substance, the “Clinical response No, number of patients” value ([3]; n: 150) was 49, the “Clinical response Yes, number of patients” value ([3]; n: 150, IS cessation and resolution of hypsarrhythmia at follow-up) was 101 and the “spasm frequency after ACTH treatment (median weekly)” value ([3]; n: 150, before treatment 294, p<0.001) was 130. The “Follow up spasms frequency” value ([3]; n: 150, mean (SD), baseline 294/week) was 130 /week, the “Sf diff (spasms frequency, baseline minus follow-up)” value ([3]; non-responders) was 60 and the “Relapse (if good response exist) No, number of patients” value ([3]; of 101 initial responders) was 71. The “Relapse (if good response exist) Yes, number of patients” value ([3]; of 101 initial responders) was 30, the “Relapse (if good response exist) No, share of patients” value [3, 6] was “(70.3)” and the “Relapse (if good response exist) Yes, share of patients” value [3, 6] was “(29.7)”. For the same substance, the “Clinical response No, share of patients” value ([3]; percentage of n: 150) was “(32.7)”, the “Clinical response Yes, share of patients” value ([3]; percentage of n: 150) was “(67.3)” and the “Sf diff (spasms frequency, baseline minus follow-up)” value ([3]; responders) was 158.
